Patent US9770445B2, “Sulfoximine substituted 5-fluoro-N-(pyridin-2-yl)pyridin-2-amine derivatives and their use as CDK9 kinase inhibitors” (BAYER PHARMA AKTIENGESELLSCHAFT, priority 2013, dated 2017)
pIC50: −log10 of the molar value.

Experiments:
CDK9/CycT1 = target: T1, CDK9/CycT1 (Homo sapiens, UniProt P50750); assay: CDK9/CycT1 high ATP kinase assay (Method 1b, TR-FRET); format: biochemical; settings: 2 mM ATP
T1 construct: Recombinant full-length His-tagged human CDK9 and CycT1; His; purchased Invitrogen PV4131; host or cells: insect cells
Procedure: 1b. CDK9/CyeT1 High ATP Kinase Assay
CDK9/CycT1-inhibitory activity of compounds of the present invention at a high ATP concentration after preincubation of enzyme and test compounds was quantified employing the CDK9/CycT1 TR-FRET assay as described in the following paragraphs.
Recombinant full-length His-tagged human CDK9 and CycT1, expressed in insect cells and purified by Ni-NTA affinity chromatography, were purchase from Invitrogen (Cat. No PV4131). As substrate for the kinase reaction biotinylated peptide biotin-Ttds-YISPLKSPYKISEG (C-terminus in amid form) was used which can be purchased e.g. form the company JERINI peptide technologies (Berlin, Germany). For the assay 50 nl of a 100 fold concentrated solution of the test compound in DMSO was pipetted into a black low volume 384 well microtiter plate (Greiner Bio-One, Frickenhausen, Germany), 2 μl of a solution of CDK9/CycT1 in aqueous assay buffer [50 mM Tris/HCl pH 8.0, 10 mM MgCl2, 1.0 mM dithiothreitol, 0.1 mM sodium ortho-vanadate, 0.01% (v/v) Nonidet-P40 (Sigma)] were added and the mixture was incubated for […] at 22° C. to allow pre-binding of the test compounds to the enzyme before the start of the kinase reaction. Then the kinase reaction was started by the addition of 3 μl of a solution of adenosine-tri-phosphate (ATP, 3.3 mM=>final conc. in the 5 μl assay volume is 2 mM) and substrate (1.67 μM=>final conc. in the 5 μl assay volume is 1 μM) in assay buffer and the resulting mixture was incubated for a reaction time of […] at 22° C. The concentration of CDK9/CycT1 was adjusted depending of the activity of the enzyme lot and was chosen appropriate to have the assay in the linear range, typical concentrations were in the range of 0.5 μg/mL The reaction was stopped by the addition of 5 μl of a solution of TR-FRET detection reagents (0.2 μM streptavidine-XL665 [Cisbio Bioassays, Codolet, France] and 1 nM anti-RB(pSer807/pSer811)-antibody from BD Pharmingen [#558389] and 1.2 nM LANCE EU-W1024 labeled anti-mouse IgG antibody [Perkin-Elmer, product no. AD0077]) in an aqueous EDTA-solution (100 mM EDTA, 0.2% (w/v) bovine serum albumin in 100 mM HEPES/NaOH pH 7.0).
(§1) The resulting mixture was incubated 1 h at 22° C. to allow the formation of complex between the phosphorylated biotinylated peptide and the detection reagents. Subsequently the amount of phosphorylated substrate was evaluated by measurement of the resonance energy transfer from the Eu-chelate to the streptavidine-XL. Therefore, the fluorescence emissions at 620 nm and 665 nm after excitation at 350 nm was measured in a HTRF reader, e.g. a Rubystar (BMG Labtechnologies, Offenburg, Germany) or a Viewlux (Perkin-Elmer). The ratio of the emissions at 665 nm and at […] was taken as the measure for the amount of phosphorylated substrate. The data were normalised (enzyme reaction without inhibitor=0% inhibition, all other assay components but no enzyme=100% inhibition).

CDK2/CycE = target: T2, CDK2/CycE (Homo sapiens, UniProt P24941); assay: CDK2/CycE kinase assay (Method 2, TR-FRET); format: biochemical; settings: Method 2, 10 μM ATP
T2 construct: GST; purchased ProQinase GmbH (Freiburg, Germany); host or cells: insect cells (Sf9)
Description: 2. CDK2/CycE Kinase Assay:
CDK2/CycE-inhibitory activity of compounds of the present invention was quantified employing the CDK2/CycE TR-FRET assay as described in the following paragraphs:
Recombinant fusion proteins of GST and human CDK2 and of GST and human CycE, expressed in insect cells (Sf9) and purified by Glutathion-Sepharose affinity chromatography, were purchased from ProQinase GmbH (Freiburg, Germany). As substrate for the kinase reaction biotinylated peptide biotin-Ttds-YISPLKSPYKISEG (C-terminus in amid form) was used which can be purchased e.g. form the company JERINI Peptide Technologies (Berlin, Germany).
For the assay 50 nl of a 100 fold concentrated solution of the test compound in DMSO was pipetted into a black low volume 384 well microtiter plate (Greiner Bio-One, Frickenhausen, Germany), 2 μl of a solution of CDK2/CycE in aqueous assay buffer [50 mM Tris/HCl pH 8.0, 10 mM MgCl2, 1.0 mM dithiothreitol, 0.1 mM sodium ortho-vanadate, 0.01% (v/v) Nonidet-P40 (Sigma)] were added and the mixture was incubated for 15 min at 22° C. to allow pre-binding of the test compounds to the enzyme before the start of the kinase reaction. Then the kinase reaction was started by the addition of 3 μl of a solution of adenosine-tri-phosphate (ATP, 16.7 μM=>final conc. in the 5 μl assay volume is 10 μM) and substrate (1.25 μM=>final conc. in the 5 μl assay volume is 0.75 μM) in assay buffer and the resulting mixture was incubated for a reaction time of 25 min at 22° C. The concentration of CDK2/CycE was adjusted depending of the activity of the enzyme lot and was chosen appropriate to have the assay in the linear range, typical concentrations were in the range of 130 ng/mL. The reaction was stopped by the addition of 5 μl of a solution of TR-FRET detection reagents (0.2 μM streptavidine-XL665 [Cisbio Bioassays, Codolet, France] and 1 nM anti-RB(pSer807/pSer811)-antibody from BD Pharmingen [#558389] and 1.2 nM LANCE EU-W1024 labeled anti-mouse IgG antibody [Perkin-Elmer, product no. AD0077]) in an aqueous EDTA-solution (100 mM EDTA, 0.2% (w/v) bovine serum albumin in 100 mM HEPES/NaOH pH 7.0).
as §1, with “TR-FRET” for “HTRF”

T1 sequence (P50750 whole entry): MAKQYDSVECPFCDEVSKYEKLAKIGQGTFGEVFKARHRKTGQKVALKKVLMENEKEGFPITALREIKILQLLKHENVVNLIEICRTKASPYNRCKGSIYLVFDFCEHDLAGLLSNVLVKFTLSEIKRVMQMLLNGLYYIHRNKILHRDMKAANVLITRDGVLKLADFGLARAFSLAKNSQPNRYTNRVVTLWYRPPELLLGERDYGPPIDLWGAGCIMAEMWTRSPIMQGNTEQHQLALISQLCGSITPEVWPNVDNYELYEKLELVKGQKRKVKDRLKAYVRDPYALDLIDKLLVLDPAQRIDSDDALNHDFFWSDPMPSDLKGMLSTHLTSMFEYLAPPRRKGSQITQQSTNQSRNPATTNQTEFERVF
T1 sequence (O60563 whole entry partner): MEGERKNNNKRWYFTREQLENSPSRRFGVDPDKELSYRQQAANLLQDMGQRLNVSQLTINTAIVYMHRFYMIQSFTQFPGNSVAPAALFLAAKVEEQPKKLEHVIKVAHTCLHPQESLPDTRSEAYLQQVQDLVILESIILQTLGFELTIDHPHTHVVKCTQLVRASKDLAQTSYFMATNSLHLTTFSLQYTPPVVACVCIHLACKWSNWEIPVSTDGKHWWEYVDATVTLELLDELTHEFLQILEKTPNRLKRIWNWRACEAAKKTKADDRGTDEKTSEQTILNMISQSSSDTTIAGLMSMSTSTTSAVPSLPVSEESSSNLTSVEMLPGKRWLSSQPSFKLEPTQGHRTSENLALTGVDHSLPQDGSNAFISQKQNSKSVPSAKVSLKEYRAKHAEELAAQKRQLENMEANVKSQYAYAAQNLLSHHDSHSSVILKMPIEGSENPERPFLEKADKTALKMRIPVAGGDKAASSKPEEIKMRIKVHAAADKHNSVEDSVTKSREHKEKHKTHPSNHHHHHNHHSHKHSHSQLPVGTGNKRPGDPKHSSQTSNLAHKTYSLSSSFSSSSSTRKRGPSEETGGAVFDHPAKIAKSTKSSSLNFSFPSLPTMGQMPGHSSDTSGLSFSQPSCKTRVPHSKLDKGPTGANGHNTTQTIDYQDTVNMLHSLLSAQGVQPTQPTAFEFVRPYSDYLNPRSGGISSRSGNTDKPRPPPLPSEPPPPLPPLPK

Compound	pIC50 (CDK9/CycT1)	pIC50 (CDK2/CycE)
CCc1cc(CS(C)(=N)=O)cc(Nc2cc(-c3ccc(F)c4ccoc34)c(F)cn2)n1 (racemic) [Example 8, (rac)-N-{6-Ethyl-4-[(S-methylsulfonimidoyl)methyl]pyridin-2-yl}-5-fluoro-4-(4-fluoro-1-benzofuran-7-yl)pyridin-2-amine]	8.89	7.85
CCNC(=O)N=S(C)(=O)Cc1ccnc(Nc2cc(-c3ccc(F)c4ccoc34)c(F)cn2)c1 (racemic) [Example 12, (rac)-1-Ethyl-3-{[(2-{[5-fluoro-4-(4-fluoro-1-benzofuran-7-yl)pyridin-2-yl]amino}pyridin-4-yl)methyl](methyl)oxido-λ^6-sulfanylidene}urea]	8.72	6.95
CS(=O)(Cc1cc(Nc2cc(-c3ccc(F)c4ccoc34)c(F)cn2)nc(C(F)(F)F)c1)=NC(=O)C(F)(F)F (racemic) [Example 4, (rac)-2,2,2-Trifluoro-N-[{[2-{[5-fluoro-4-(4-fluoro-1-benzofuran-7-yl)pyridin-2-yl]amino}-6-(trifluoromethyl)pyridin-4-yl]methyl}(methyl)oxido-λ^6-sulfanylidene]acetamide]	8.15	6.96
CS(=O)(Cc1ccnc(Nc2cc(-c3ccc(F)c4ccoc34)c(F)cn2)c1)=NC(=O)C(F)(F)F (racemic) [Example 6, (rac)-2,2,2-Trifluoro-N-{[(2-{[5-fluoro-4-(4-fluoro-1-benzofuran-7-yl)pyridin-2-yl]amino}pyridin-4-yl)methyl](methyl)oxido-λ^6-sulfanylidene}acetamide]	8.19	6.27
CS(=O)(Cc1ccnc(Nc2cc(-c3ccc(F)c4ccoc34)c(F)cn2)c1)=NC(=O)NCC(F)(F)F (racemic) [Example 13, (rac)-1-{[(2-{[5-Fluoro-4-(4-fluoro-1-benzofuran-7-yl)pyridin-2-yl]amino}pyridin-4-yl)methyl](methyl)oxido-λ^6-sulfanylidene}-3-(2,2,2-trifluoroethyl)urea]	8.64	6.55
CS(=O)(Cc1ccnc(Nc2cc(-c3ccc(F)c4ccoc34)c(F)cn2)c1)=NC#N (racemic) [Example 9, (rac)-{[(2-{[5-fluoro-4-(4-fluoro-1-benzofuran-7-yl)pyridin-2-yl]amino}pyridin-4-yl)methyl](methyl)oxido-λ^6-sulfanylidene}cyanamide]	8.80	6.84
CS(=N)(=O)Cc1cc(Nc2cc(-c3ccc(F)c4ccoc34)c(F)cn2)nc(C(F)(F)F)c1 (racemic) [Example 3, (rac)-5-Fluoro-4-(4-fluoro-1-benzofuran-7-yl)-N-{4-[(S-methylsulfonimidoyl)methyl]-6-(trifluoromethyl)pyridin-2-yl}pyridin-2-amine]	8.57	7.68
Cc1cc(CS(C)(=N)=O)cc(Nc2cc(-c3ccc(F)c4ccoc34)c(F)cn2)n1 (racemic) [Example 7, (rac)-5-Fluoro-4-(4-fluoro-1-benzofuran-7-yl)-N-{6-methyl-4-[(S-methylsulfonimidoyl)-methyl]pyridin-2-yl}pyridin-2-amine]	8.89	7.41
CS(=N)(=O)Cc1cc(F)nc(Nc2cc(-c3ccc(F)c4ccoc34)c(F)cn2)c1 (racemic) [Example 1, (rac)-5-Fluoro-4-(4-fluoro-1-benzofuran-7-yl)-N-{6-fluoro-4-[(S-methylsulfonimidoyl)methyl]pyridin-2-yl}pyridin-2-amine]	8.82	7.38
CS(=N)(=O)Cc1ccnc(Nc2cc(-c3ccc(F)c4ccoc34)c(F)cn2)c1 (racemic) [Example 5, (rac)-5-Fluoro-4-(4-fluoro-1-benzofuran-7-yl)-N-{4-[(S-methylsulfonimidoyl)methyl]pyridin-2-yl}pyridin-2-amine]	8.70	6.89
CCOC(=O)N=S(C)(=O)Cc1ccnc(Nc2cc(-c3ccc(F)c4ccoc34)c(F)cn2)c1 (racemic) [Example 11, (rac)-Ethyl {[(2-{[5-fluoro-4-(4-fluoro-1-benzofuran-7-yl)pyridin-2-yl]amino}pyridin-4-yl)methyl](methyl)oxido-λ^6-sulfanylidene}carbamate]	8.70	6.86
CC(=O)N=S(C)(=O)Cc1ccnc(Nc2cc(-c3ccc(F)c4ccoc34)c(F)cn2)c1 (racemic) [Example 10, (rac)-N-{[(2-{[5-fluoro-4-(4-fluoro-1-benzofuran-7-yl)pyridin-2-yl]amino}pyridin-4-yl)methyl](methyl)oxido-λ^6-sulfanylidene}acetamide]	8.64	6.78
CS(=O)(Cc1cc(F)nc(Nc2cc(-c3ccc(F)c4ccoc34)c(F)cn2)c1)=NC(=O)C(F)(F)F (racemic) [Example 2, (rac)-2,2,2-Trifluoro-N-{[(2-fluoro-6-{[5-fluoro-4-(4-fluoro-1-benzofuran-7-yl)pyridin-2-yl]amino}pyridin-4-yl)methyl](methyl)oxido-λ^6-sulfanylidene}acetamide]	8.11	6.42
